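Cultured in 96-well plates, cells were exposed to test compound for 48 hours across five concentrations. Abbreviation: GI50, concentration required for 50% inhibition of growth.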 The source made the active and inactive calls. Rule as the data show it: active = GI50 up to about 1.1 µM and inactive = higher.
How the values were obtained:
Assay in all cases: NCI-60 cell line screen, 48 h
786-0 = test system: 786-0
A498 = test system: A498
A549 = test system: A549
ACHN = test system: ACHN
BT-549 = test system: BT-549
CAKI-1 = test system: CAKI-1
HOP-92 = test system: HOP-92
K562 = test system: K562
M14 = test system: M14
MDA-N = test system: MDA-N
MOLT-4 = test system: MOLT-4
Malme-3M = test system: Malme-3M
OVCAR-5 = test system: OVCAR-5
PC-3 = test system: PC-3
SK-MEL-28 = test system: SK-MEL-28
SK-MEL-2 = test system: SK-MEL-2
SK-MEL-5 = test system: SK-MEL-5
SNB-19 = test system: SNB-19
SNB-75 = test system: SNB-75

Compound	GI50 (786-0)	GI50 (A498)	GI50 (A549)	GI50 (ACHN)	GI50 (BT-549)	GI50 (CAKI-1)	GI50 (HOP-92)	GI50 (K562)	GI50 (M14)	GI50 (MDA-N)	GI50 (MOLT-4)	GI50 (Malme-3M)	GI50 (OVCAR-5)	GI50 (PC-3)	GI50 (SK-MEL-28)	GI50 (SK-MEL-2)	GI50 (SK-MEL-5)	GI50 (SNB-19)	GI50 (SNB-75)
COc1ccc(C#CC(=O)O)c(OC)c1	> 100 µM (inactive)	> 100 µM (inactive)	> 100 µM (inactive)	> 100 µM (inactive)	> 100 µM (inactive)	> 100 µM (inactive)	> 100 µM (inactive)	> 100 µM (inactive)	> 100 µM (inactive)	> 100 µM (inactive)	> 100 µM (inactive)	> 100 µM (inactive)	> 100 µM (inactive)	> 100 µM (inactive)	> 100 µM (inactive)	> 100 µM (inactive)	> 100 µM (inactive)	> 100 µM (inactive)	
COCCCNc1c2ccccc2nc2ccccc12	3.57 µM (inactive)	3.97 µM (inactive)	2.92 µM (inactive)	0.813 µM (active)	10.9 µM (inactive)	1.39 µM (inactive)	3.58 µM (inactive)	3.23 µM (inactive)	2.01 µM (inactive)	3.09 µM (inactive)	3.57 µM (inactive)	1.87 µM (inactive)	2.17 µM (inactive)	2.01 µM (inactive)	2.44 µM (inactive)	2.17 µM (inactive)	2.14 µM (inactive)	3.09 µM (inactive)	
O=c1[nH]nc(Cc2ccccc2)n1/N=C/c1cccnc1	> 100 µM (inactive)	> 100 µM (inactive)	> 100 µM (inactive)	> 100 µM (inactive)	25 µM (inactive)	12.4 µM (inactive)	> 100 µM (inactive)	> 100 µM (inactive)	> 100 µM (inactive)	> 100 µM (inactive)	> 100 µM (inactive)	> 100 µM (inactive)	> 100 µM (inactive)	> 100 µM (inactive)	> 100 µM (inactive)		> 100 µM (inactive)	> 100 µM (inactive)	> 100 µM (inactive)
COc1ccc(N2C(=O)c3cc([N+](=O)[O-])cnc3S2(=O)=O)cc1	> 100 µM (inactive)		> 100 µM (inactive)	> 100 µM (inactive)	> 100 µM (inactive)		> 100 µM (inactive)	> 100 µM (inactive)		> 100 µM (inactive)	> 100 µM (inactive)	> 100 µM (inactive)	> 100 µM (inactive)	> 100 µM (inactive)	> 100 µM (inactive)	> 100 µM (inactive)		> 100 µM (inactive)	> 100 µM (inactive)
Cc1cc(S(=O)(=O)NC2=Nc3ccccc3C(c3ccccc3)N2)c(S)cc1Cl (stereo not drawn)	8.2 µM (inactive)	> 100 µM (inactive)	18.2 µM (inactive)	> 100 µM (inactive)	> 100 µM (inactive)	45.8 µM (inactive)	> 100 µM (inactive)	87.9 µM (inactive)	> 100 µM (inactive)	78 µM (inactive)	81.8 µM (inactive)	> 100 µM (inactive)	> 100 µM (inactive)	16.4 µM (inactive)	> 100 µM (inactive)		> 100 µM (inactive)	34 µM (inactive)	> 100 µM (inactive)
C=C(C)C[C@H](Sc1nc2ccccc2s1)[C@H](C)O	40.8 µM (inactive)	27.2 µM (inactive)	50.5 µM (inactive)	> 100 µM (inactive)	40.2 µM (inactive)	70.1 µM (inactive)	24.6 µM (inactive)	33.7 µM (inactive)	77.3 µM (inactive)	37 µM (inactive)	16.4 µM (inactive)	25.6 µM (inactive)	65.8 µM (inactive)	22.6 µM (inactive)	41.4 µM (inactive)	23.1 µM (inactive)	18.1 µM (inactive)	> 100 µM (inactive)	
Cn1c(=O)c2c(nc3sc4nc5ccccc5nc4n32)n(C)c1=O	> 100 µM (inactive)	> 100 µM (inactive)	> 100 µM (inactive)	> 100 µM (inactive)	> 100 µM (inactive)	> 100 µM (inactive)	> 100 µM (inactive)	> 100 µM (inactive)	> 100 µM (inactive)	> 100 µM (inactive)	> 100 µM (inactive)	> 100 µM (inactive)	> 100 µM (inactive)	> 100 µM (inactive)			32.7 µM (inactive)	> 100 µM (inactive)	34.8 µM (inactive)
O=C1/C(=C\c2ccc(Cl)cc2Cl)Sc2scc(-c3ccc(O)c(O)c3)[n+]21	15.7 µM (inactive)		16.9 µM (inactive)	18.8 µM (inactive)	17.9 µM (inactive)	20.1 µM (inactive)	7.76 µM (inactive)		16.3 µM (inactive)	17.5 µM (inactive)	9.64 µM (inactive)		16.4 µM (inactive)	13.7 µM (inactive)	15.9 µM (inactive)	11.5 µM (inactive)	7.98 µM (inactive)	17.6 µM (inactive)	21.8 µM (inactive)

Reference: ChEMBL document CHEMBL1201862, “PubChem BioAssay data set” (2004)
